Data reported in PMC8359193, “Summary of reference chemicals evaluated by the fish short‐term reproduction assay, OECD TG229, using Japanese Medaka, Oryzias latipes” (Journal of Applied Toxicology, 2021).
Structures can show the parent of a compound that is named as a salt.

Tested on: Japanese medaka (Oryzias latipes)
Experiment: Fish short-term reproduction assay (FSTRA, OECD TG229), 21-day flow-through exposure
Settings: for Fertility rate (%) / Mortality (%) Female / Mortality (%) Male / Number of fertilized eggs / Number of total eggs / SSC Female / SSC Male / VTG (ng/mg of liver) Female / VTG (ng/mg of liver) Male: 21 days; for GSI Female / GSI Male / HSI Female / HSI Male / Length Female / Length Male / Weight Female / Weight Male: at completion of exposure
Experimental: The experimental studies on the FSTRA for the 16 chemicals were conducted in two laboratories in Japan, the National Institute for Environmental Studies (NIES, Lab‐1) and the Institute of Environmental Ecology, IDEA Consultants Inc. (Lab‐2), in accordance with OECD TG229 (OECD, [2012a]) (Table 1).
The NIES‐R strain of Japanese medaka (O. latipes), one of the orange‐red varieties, was used in all the 16 chemical studies. For the studies, healthy and mature male and female medakas at 16 ± 2 weeks old were selected from a single‐stock population, which were bred within the test facilities. The test fish were maintained in conditions similar to the assay for at least 7 days, and spawning status was checked during the acclimation period. On the day the chemical exposure commenced, to ensure balanced distribution of test fish between the treatment groups for the reproductive status of the fish, the replicate vessels (fish tanks), with each containing three male and female medaka, were distributed to each treatment and control group, for example, by a randomized block design based on the number of fertilized eggs laid in the last 5–7 days during the acclimation, in each assay.
The water solubility of the test chemical was also taken into consideration when deciding the highest test concentration. To set the lower concentrations, a spacing factor ranging between two and five was used. All assays included a dilution water control (DWC).
Test solutions at the selected concentrations were prepared by diluting a stock solution, which was prepared by an adequate method depending on the physicochemical properties of the test chemicals, for example, by simply mixing the test chemical in dilution water by stirring and/or sonicating for an appropriate time or by using a solid–liquid saturator. In the two laboratories, flow‐through exposure systems, in which a series of test solutions at the target concentrations can be continuously prepared and delivered to test vessels at controlled flow rates (Haselman et al., [2016]; Watanabe et al., [2017]), were used for the exposure experiments.
In the FSTRA, three mature adult males and females in a test vessel were exposed together to the test chemicals in flow‐through condition for 3 weeks. In all the assays, each treatment group, including the DWC group, contained four replicate tanks. During the exposure period, the fish were fed a sufficient amount of live brine shrimp nauplii (newly hatched Artemia sp.) for daily spawning ad libitum. Fecal material in the tanks was appropriately removed by siphoning after feeding. Water temperature of test solutions was recorded for at least one vessel in each treatment and control group every day and for all vessels at least once a week. Furthermore, dissolved oxygen and pH of test solutions were measured for all test vessels at least once a week. Mortality and abnormal behavior and appearance in the fish exposed to test chemicals were daily observed, and any fish that died were removed from the tank as soon as possible. To assess the reproductive status, all eggs females spawned were collected every day. At the completion of the chemical exposure, surviving fish in each tank were sampled.
The eggs females released on the bottom of the tank were collected by siphoning, and the egg clutches still on female abdomen were carefully picked from the body of the females captured using a small net. All the eggs collected were microscopically observed and separately counted for fertilized and unfertilized.

C[C@]12CCC(=O)C[C@@H]1CC[C@@H]1[C@@H]2CC[C@]2(C)[C@@H](O)CC[C@@H]12 [DHT, 5α‐Dihydrotestosterone]
effect on male SSC, in words (21-day exposure): statistical significance | LOEC on female SSC (papillary process formation on anal fin) (21-day exposure, measured conc.): 1.03 µg/L | Fertility rate (%) (measured conc. 0.063 μg/L): 94% | Mortality (%) Female (measured conc. 0.063 μg/L): 0% | Mortality (%) Male (measured conc. 0.063 μg/L): 0% | Number of fertilized eggs (measured conc. 0.063 μg/L): 17 | Number of total eggs (measured conc. 0.063 μg/L): 18 ± 5.6 /female/day | SSC Female (measured conc. 0.063 μg/L): 0 ± 0 | SSC Male (measured conc. 0.063 μg/L): 72 ± 12 | VTG (ng/mg of liver) Female (measured conc. 0.063 μg/L): 617 ± 374 ng/mg of liver | VTG (ng/mg of liver) Male (measured conc. 0.063 μg/L): 1.6 ± 0.4 ng/mg of liver | GSI Female (measured conc. 0.063 μg/L): 10.5% | GSI Male (measured conc. 0.063 μg/L): 1.15% | HSI Female (measured conc. 0.063 μg/L): 3.6% | HSI Male (measured conc. 0.063 μg/L): 1.5% | Length Female (measured conc. 0.063 μg/L): 32.9 mm | Length Male (measured conc. 0.063 μg/L): 33.4 mm | Weight Female (measured conc. 0.063 μg/L): 354 mg | Weight Male (measured conc. 0.063 μg/L): 377 mg | Fertility rate (%) (measured conc. 2.97 μg/L): 84% | Mortality (%) Female (measured conc. 2.97 μg/L): 0% | Mortality (%) Male (measured conc. 2.97 μg/L): 0% | Number of fertilized eggs (measured conc. 2.97 μg/L): 12 | Number of total eggs (measured conc. 2.97 μg/L): 14 ± 3.7 /female/day | SSC Female (measured conc. 2.97 μg/L): 22 ± 14 | SSC Male (measured conc. 2.97 μg/L): 78 ± 16 | VTG (ng/mg of liver) Female (measured conc. 2.97 μg/L): 587 ± 306 ng/mg of liver | VTG (ng/mg of liver) Male (measured conc. 2.97 μg/L): 1.4 ± 0.7 ng/mg of liver | GSI Female (measured conc. 2.97 μg/L): 21.1% | GSI Male (measured conc. 2.97 μg/L): 1.21% | HSI Female (measured conc. 2.97 μg/L): 3.8% | HSI Male (measured conc. 2.97 μg/L): 1.7% | Length Female (measured conc. 2.97 μg/L): 32.8 mm | Length Male (measured conc. 2.97 μg/L): 33.6 mm | Weight Female (measured conc. 2.97 μg/L): 425 mg | Weight Male (measured conc. 2.97 μg/L): 411 mg | effect on fecundity (number of total eggs), in words (within the test concentrations, 21-day exposure): significantly reduced

O=C(c1ccc(OCCN2CCCCC2)cc1)c1c(-c2ccc(O)cc2)sc2cc(O)ccc12 [RAL, Raloxifene hydrochloride]
LOEC for decrease of VTG in females (hepatic VTG, 21-day exposure, measured conc.): 721 µg/L | Fertility rate (%) (measured conc. 63.9 μg/L): 87% | Mortality (%) Female (measured conc. 63.9 μg/L): 0% | Mortality (%) Male (measured conc. 63.9 μg/L): 0% | Number of fertilized eggs (measured conc. 63.9 μg/L): 16 | Number of total eggs (measured conc. 63.9 μg/L): 18 ± 4.2 /female/day | SSC Female (measured conc. 63.9 μg/L): 0 ± 0 | VTG (ng/mg of liver) Male (measured conc. 63.9 μg/L): 19.6 ± 5.7 ng/mg of liver | GSI Female (measured conc. 63.9 μg/L): 9.6% | GSI Male (measured conc. 63.9 μg/L): 1.03% | HSI Female (measured conc. 63.9 μg/L): 3.2% | HSI Male (measured conc. 63.9 μg/L): 1.5% | Length Female (measured conc. 63.9 μg/L): 36.9 mm | Length Male (measured conc. 63.9 μg/L): 37.5 mm | Weight Female (measured conc. 63.9 μg/L): 555 mg | Weight Male (measured conc. 63.9 μg/L): 511 mg | Fertility rate (%) (measured conc. 203 μg/L): 86% | Mortality (%) Female (measured conc. 203 μg/L): 0% | Mortality (%) Male (measured conc. 203 μg/L): 0% | Number of fertilized eggs (measured conc. 203 μg/L): 14 | Number of total eggs (measured conc. 203 μg/L): 16 ± 2.6 /female/day | SSC Female (measured conc. 203 μg/L): 0 ± 0 | SSC Male (measured conc. 203 μg/L): 118 ± 15 | VTG (ng/mg of liver) Female (measured conc. 203 μg/L): 652 ± 82.4 ng/mg of liver | VTG (ng/mg of liver) Male (measured conc. 203 μg/L): 30.2 ± 11.4 ng/mg of liver | GSI Female (measured conc. 203 μg/L): 10.2% | GSI Male (measured conc. 203 μg/L): 0.97% | HSI Female (measured conc. 203 μg/L): 2.9% | HSI Male (measured conc. 203 μg/L): 1.6% | Length Female (measured conc. 203 μg/L): 37.8 mm | Length Male (measured conc. 203 μg/L): 38.4 mm | Weight Female (measured conc. 203 μg/L): 600 mg | Weight Male (measured conc. 203 μg/L): 550 mg | Fertility rate (%) (measured conc. 721 μg/L): 82% | Mortality (%) Female (measured conc. 721 μg/L): 0% | Mortality (%) Male (measured conc. 721 μg/L): 0% | Number of fertilized eggs (measured conc. 721 μg/L): 14 | Number of total eggs (measured conc. 721 μg/L): 17 ± 2.6 /female/day | SSC Female (measured conc. 721 μg/L): 0 ± 0 | VTG (ng/mg of liver) Female (measured conc. 721 μg/L): 368 ± 68.4 ng/mg of liver | VTG (ng/mg of liver) Male (measured conc. 721 μg/L): 24.1 ± 13.7 ng/mg of liver | GSI Female (measured conc. 721 μg/L): 10.5% | GSI Male (measured conc. 721 μg/L): 0.96% | HSI Female (measured conc. 721 μg/L): 3.4% | HSI Male (measured conc. 721 μg/L): 1.5% | Length Female (measured conc. 721 μg/L): 38.8 mm | Length Male (measured conc. 721 μg/L): 39.0 mm | Weight Female (measured conc. 721 μg/L): 638 mg | Weight Male (measured conc. 721 μg/L): 612 mg | Fertility rate (%) (measured conc. 2080 μg/L): 72% | Mortality (%) Female (measured conc. 2080 μg/L): 0% | Mortality (%) Male (measured conc. 2080 μg/L): 0% | Number of fertilized eggs (measured conc. 2080 μg/L): 14 | Number of total eggs (measured conc. 2080 μg/L): 19 ± 2.5 /female/day | SSC Female (measured conc. 2080 μg/L): 0 ± 0 | VTG (ng/mg of liver) Female (measured conc. 2080 μg/L): 305 ± 99.8 ng/mg of liver | VTG (ng/mg of liver) Male (measured conc. 2080 μg/L): 17.2 ± 3.5 ng/mg of liver | GSI Female (measured conc. 2080 μg/L): 11.5% | GSI Male (measured conc. 2080 μg/L): 1.12% | HSI Female (measured conc. 2080 μg/L): 4.7% | HSI Male (measured conc. 2080 μg/L): 1.7% | Length Female (measured conc. 2080 μg/L): 38.8 mm | Length Male (measured conc. 2080 μg/L): 37.1 mm | Weight Female (measured conc. 2080 μg/L): 675 mg | Weight Male (measured conc. 2080 μg/L): 506 mg
